Data from patent publication US10131652B2, “Pyrimidinyloxy benzene derivatives as herbicides” (E. I. DU PONT DE NEMOURS AND COMPANY, priority 2014, dated 2018).

Assays:
Test in all cases: Test F pre-/postemergence plant response
Format in all cases: in vivo
Conditions in all cases: scale 0 to 100
[1] = system: arrowleaf sida (Sida rhombifolia)
Procedure, shortened: (§1)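 Two application timings were run side by side: soil surface treatment of freshly planted seed in silt loam, and foliar treatment of seedlings 2 to 18 cm high. Plants stayed in the greenhouse 14 to 21 days before visual 0–100 injury scoring against controls.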

[2] = system: barnyardgrass (Echinochloa crus-galli)
Procedure, shortened: as §1

[3] = system: dayflower (Virginia (VA) dayflower, Commelina virginica)
Procedure, shortened: as §1

[4] = system: field bindweed (Convolvulus arvensis)
Procedure, shortened: as §1

[5] = system: giant foxtail (Setaria faberii)
Procedure, shortened: as §1

[6] = system: goosegrass (Eleusine indica)
Procedure, shortened: as §1

[7] = system: hairy beggarticks (Bidens pilosa)
Procedure, shortened: as §1

[8] = system: johnsongrass (Sorghum halepense)
Procedure, shortened: as §1

[9] = system: large (Lg) crabgrass (Digitaria sanguinalis)
Procedure, shortened: as §1

[10] = system: sandbur (southern sandbur, Cenchrus echinatus)
Procedure, shortened: as §1

[11] = system: soybean (Glycine max)
Procedure, shortened: as §1

[12] = system: surinam grass (Brachiaria decumbens)
Procedure, shortened: as §1

[13] = system: velvetleaf (Abutilon theophrasti)
Procedure, shortened: as §1

[14] = system: waterhemp (common waterhemp, Amaranthus rudis)
Procedure, shortened: as §1

[15] = system: wild poinsettia (Euphorbia heterophylla)
Procedure, shortened: as §1

[16] = system: yellow nutsedge (Cyperus esculentus)
Procedure, shortened: as §1

## FC(F)c1cc(-c2c(Cl)cccc2Oc2ncc(Cl)cn2)no1 [Compound 179]
[1]; 16 g ai/ha Postemergence
  Plant response rating, Arrowleaf Sida: 70
[1]; 16 g ai/ha Preemergence
  Plant response rating, Arrowleaf Sida: 0
[1]; 31 g ai/ha Postemergence
  Plant response rating, Arrowleaf Sida: 80
[1]; 31 g ai/ha Preemergence
  Plant response rating, Arrowleaf Sida: 80
[1]; 62 g ai/ha Postemergence
  Plant response rating, Arrowleaf Sida: 85
[1]; 62 g ai/ha Preemergence
  Plant response rating, Arrowleaf Sida: 80
[1]; 125 g ai/ha Postemergence
  Plant response rating, Arrowleaf Sida: 100
[1]; 125 g ai/ha Preemergence
  Plant response rating, Arrowleaf Sida: 90
[2]; 16 g ai/ha Postemergence
  Plant response rating, Barnyardgrass: 0
[2]; 16 g ai/ha Preemergence
  Plant response rating, Barnyardgrass: 0
[2]; 31 g ai/ha Postemergence
  Plant response rating, Barnyardgrass: 0
[2]; 31 g ai/ha Preemergence
  Plant response rating, Barnyardgrass: 0
[2]; 62 g ai/ha Postemergence
  Plant response rating, Barnyardgrass: 0
[2]; 62 g ai/ha Preemergence
  Plant response rating, Barnyardgrass: 0
[2]; 125 g ai/ha Postemergence
  Plant response rating, Barnyardgrass: 0
[2]; 125 g ai/ha Preemergence
  Plant response rating, Barnyardgrass: 5
[3]; 16 g ai/ha Preemergence
  Plant response rating, Dayflower, VA: 0
[3]; 31 g ai/ha Preemergence
  Plant response rating, Dayflower, VA: 0
[3]; 62 g ai/ha Preemergence
  Plant response rating, Dayflower, VA: 35
[3]; 125 g ai/ha Preemergence
  Plant response rating, Dayflower, VA: 85
[4]; 16 g ai/ha Postemergence
  Plant response rating, Field Bindweed: 15
[4]; 16 g ai/ha Preemergence
  Plant response rating, Field Bindweed: 0
[4]; 31 g ai/ha Postemergence
  Plant response rating, Field Bindweed: 25
[4]; 31 g ai/ha Preemergence
  Plant response rating, Field Bindweed: 0
[4]; 62 g ai/ha Postemergence
  Plant response rating, Field Bindweed: 35
[4]; 62 g ai/ha Preemergence
  Plant response rating, Field Bindweed: 0
[4]; 125 g ai/ha Postemergence
  Plant response rating, Field Bindweed: 50
[4]; 125 g ai/ha Preemergence
  Plant response rating, Field Bindweed: 0
[5]; 16 g ai/ha Preemergence
  Plant response rating, Foxtail, Giant: 0
[5]; 31 g ai/ha Preemergence
  Plant response rating, Foxtail, Giant: 0
[5]; 62 g ai/ha Preemergence
  Plant response rating, Foxtail, Giant: 30
[5]; 125 g ai/ha Preemergence
  Plant response rating, Foxtail, Giant: 20
[6]; 16 g ai/ha Preemergence
  Plant response rating, Goosegrass: 0
[6]; 31 g ai/ha Preemergence
  Plant response rating, Goosegrass: 0
[6]; 125 g ai/ha Preemergence
  Plant response rating, Goosegrass: 0
[6]; Preemergence
  Plant response rating, Goosegrass: 0
[7]; 16 g ai/ha Postemergence
  Plant response rating, Beggarticks: 20
[7]; 16 g ai/ha Preemergence
  Plant response rating, Beggarticks: 0
[7]; 31 g ai/ha Postemergence
  Plant response rating, Beggarticks: 50
[7]; 31 g ai/ha Preemergence
  Plant response rating, Beggarticks: 0
[7]; 62 g ai/ha Postemergence
  Plant response rating, Beggarticks: 40
[7]; 62 g ai/ha Preemergence
  Plant response rating, Beggarticks: 0
[7]; 125 g ai/ha Postemergence
  Plant response rating, Beggarticks: 50
[7]; 125 g ai/ha Preemergence
  Plant response rating, Beggarticks: 0
[8]; 16 g ai/ha Preemergence
  Plant response rating, Johnsongrass: 0
[8]; 31 g ai/ha Preemergence
  Plant response rating, Johnsongrass: 0
[8]; 125 g ai/ha Preemergence
  Plant response rating, Johnsongrass: 10
[8]; Preemergence
  Plant response rating, Johnsongrass: 10
[9]; 16 g ai/ha Preemergence
  Plant response rating, Crabgrass, Large: 0
[9]; 31 g ai/ha Preemergence
  Plant response rating, Crabgrass, Large: 0
[9]; 62 g ai/ha Preemergence
  Plant response rating, Crabgrass, Large: 35
[9]; 125 g ai/ha Preemergence
  Plant response rating, Crabgrass, Large: 60
[10]; 16 g ai/ha Postemergence
  Plant response rating, Sandbur: 0
[10]; 16 g ai/ha Preemergence
  Plant response rating, Sandbur: 0
[10]; 31 g ai/ha Postemergence
  Plant response rating, Sandbur: 0
[10]; 31 g ai/ha Preemergence
  Plant response rating, Sandbur: 0
[10]; 62 g ai/ha Postemergence
  Plant response rating, Sandbur: 5
[10]; 125 g ai/ha Postemergence
  Plant response rating, Sandbur: 10
[10]; 125 g ai/ha Preemergence
  Plant response rating, Sandbur: 0
[10]; Preemergence
  Plant response rating, Sandbur: 0
[11]; 16 g ai/ha Postemergence
  Plant response rating, Soybean: 60
[11]; 16 g ai/ha Preemergence
  Plant response rating, Soybean: 0
[11]; 31 g ai/ha Postemergence
  Plant response rating, Soybean: 50
[11]; 31 g ai/ha Preemergence
  Plant response rating, Soybean: 0
[11]; 62 g ai/ha Postemergence
  Plant response rating, Soybean: 75
[11]; 125 g ai/ha Postemergence
  Plant response rating, Soybean: 90
[11]; 125 g ai/ha Preemergence
  Plant response rating, Soybean: 35
[11]; Preemergence
  Plant response rating, Soybean: 0
[12]; 16 g ai/ha Preemergence
  Plant response rating, Surinam Grass: 0
[12]; 31 g ai/ha Preemergence
  Plant response rating, Surinam Grass: 0
[12]; 125 g ai/ha Preemergence
  Plant response rating, Surinam Grass: 0
[12]; Preemergence
  Plant response rating, Surinam Grass: 0
[13]; 16 g ai/ha Preemergence
  Plant response rating, Velvetleaf: 15
[13]; 31 g ai/ha Preemergence
  Plant response rating, Velvetleaf: 65
[13]; 125 g ai/ha Preemergence
  Plant response rating, Velvetleaf: 100
[13]; Preemergence
  Plant response rating, Velvetleaf: 90
[14]; 16 g ai/ha Postemergence
  Plant response rating, Waterhemp: 70
[14]; 16 g ai/ha Preemergence
  Plant response rating, Waterhemp: 95
[14]; 31 g ai/ha Postemergence
  Plant response rating, Waterhemp: 95
[14]; 31 g ai/ha Preemergence
  Plant response rating, Waterhemp: 95
[14]; 62 g ai/ha Postemergence
  Plant response rating, Waterhemp: 95
[14]; 125 g ai/ha Postemergence
  Plant response rating, Waterhemp: 100
[14]; 125 g ai/ha Preemergence
  Plant response rating, Waterhemp: 100
[14]; Preemergence
  Plant response rating, Waterhemp: 100
[15]; 16 g ai/ha Postemergence
  Plant response rating, Poinsettia, Wild: 15
[15]; 16 g ai/ha Preemergence
  Plant response rating, Poinsettia, Wild: 0
[15]; 31 g ai/ha Postemergence
  Plant response rating, Poinsettia, Wild: 15
[15]; 31 g ai/ha Preemergence
  Plant response rating, Poinsettia, Wild: 0
[15]; 62 g ai/ha Postemergence
  Plant response rating, Poinsettia, Wild: 20
[15]; 125 g ai/ha Postemergence
  Plant response rating, Poinsettia, Wild: 35
[15]; 125 g ai/ha Preemergence
  Plant response rating, Poinsettia, Wild: 0
[15]; Preemergence
  Plant response rating, Poinsettia, Wild: 0
[16]; 16 g ai/ha Preemergence
  Plant response rating, Nutsedge, Yellow: 0
[16]; 31 g ai/ha Preemergence
  Plant response rating, Nutsedge, Yellow: 0
[16]; 125 g ai/ha Preemergence
  Plant response rating, Nutsedge, Yellow: 0
[16]; Preemergence
  Plant response rating, Nutsedge, Yellow: 0
